# According to patent US20230219934A1, “2,3-DISUBSTITUTED PYRIDO[3,4-B]PYRAZINE-CONTAINING COMPOUNDS AS KINASE INHIBITORS” (Purdue Research Foundation, priority 2020, published 2023):
# Columns and labels:
# [1] = test system: some lung and colon cancers; assay: NCI-60 potency comparison on lung and colon cancers; type: cell-based; details: more potently than HSL212
# Procedure: (§1) According to the National Cancer Institute, Bethesda, Md. (the protocol of the Drug Evaluation Branch), the effects of compounds are measured as follows: Cell suspensions are diluted to a target cell density of 5000-40,000 cells per well (based on cell growth characteristics) in a 96-well microtiter plates. The test compounds were evaluated at five concentrations (10-fold dilutions) with the highest concentration being 100 μM. The incubation period was 48 h under 5% carbon dioxide atmosphere and 100% humidity. A sulforhodamine B assay was used to assay the cells. Optical densities of the wells were read by a plate reader the optical densities were processed into GI50 (the concentration that causes 50% growth inhibition).
# (§2) The NCI renamed the IC50 value, the concentration of compound that causes 50% growth inhibition, as follows.
# (§3) GI50=100×(T−T0)/(C−T0)=50, where T=the optical density of the test well after a 48-h period of exposure to test drug, T0=the optical density at time zero, C=the control optical density. The control is the well not treated with test agent (https://dtp.cancer.gov/databases_tools/docs/compare/compare_methodology.htm).
# [2] = test system: KM12 (colon and driven by TrkA kinase); assay: NCI-60 GI50 determination, KM12; type: cell-based; details: Homo sapiens, NCI Developmental Therapeutics Program in-vitro testing, 48 h
# Procedure: as §1, §2, §3
# [3] = test system: K562 cell line (leukemia); assay: NCI-60 GI50 determination, K562; type: cell-based; details: Homo sapiens, NCI Developmental Therapeutics Program in-vitro testing, 48 h
# Procedure: as §1, §2, §3
# EKVX (NSCLC) = assay: NCI-60 GI50 determination, EKVX; type: cell-based; details: Homo sapiens, NCI Developmental Therapeutics Program in-vitro testing, 48 h
# Procedure: as §1, §2, §3
# Oral bioavailability = details: in vivo
# MiaPaCa-2 = assay: MIA PaCa-2 pancreatic cancer cell growth inhibition (CellTitre Blue viability); type: cell-based; details: Homo sapiens, pancreatic cancer cell line, 72 hours
# Procedure: Cell Culture: MIA PaCa-2 cells were cultured in RPMI media supplemented with 10% fetal bovine serum, 1% GlutaMax Supplement (GIBCO™), 1% Penicillin-Streptomycin (GIBCO™). Cells were seeded in a 96-well plate at 1.1×10^4 cells/mL. Cells were incubated at […] for 24 hours after which plates were treated in triplicates with 10 uL of compound (0.6 μM in DMSO) that was further diluted in the same media (5 μL of compound into 145 μL of media). For IC50 compounds were tested at 9 different concentrations, initial concentration of 0.6 μM in DMSO and subsequently diluted by a third for the other 8 concentrations. This was incubated at […] for 72 hours after which 10 uL of The CellTitre Blue Cell Viability Assay (Promega, Madison Wis.) was added to each well and incubated at […] for 3 hours. Plates were read on a CYTATION™ 5 Cell Imaging Multi-Mode Reader (BioTek). Appropriate controls were used. Graphed using GraphPadPrism 5.0 Software.
# [4] = test system: cell lines harboring RET solvent front mutations; assay: Inhibition of selpercatinib and pralsetinib-resistant cell lines; type: cell-based
# [5] = test system: cell line harboring RET G810R; assay: Inhibition of cell line harboring RET G810R; type: cell-based; details: under similar conditions
# [6] = test system: tumor harboring solvent front RET810 mutation; assay: Growth of tumor harboring solvent front RET810 mutation; type: in vivo, mice; details: HSL476 at 25 mg/Kg (daily)
# Tolerability in mice = type: in vivo
Compound,GI50 [2],GI50 [3],GI50 (EKVX (NSCLC)),IC50 [5],Effect on growth of tumor harboring solvent front RET810 mutation [6],other results
"Cc1nc2cncc(C#Cc3cncc(C(=O)Nc4ccc(CN5CCN(C)CC5)c(C(F)(F)F)c4)c3)c2nc1C [HSL211, 5-((2,3-dimethylpyrido[3,4-b]pyrazin-8-yl)ethynyl)-N-(4-((4-methylpiperazin-1-yl)methyl)-3-(trifluoromethyl)phenyl)nicotinamide]",< 5 nM,< 5 nM,484 nM,–,–,Potency relative to HSL212 on some lung and colon cancers [1]: ~100 ×
"CN1CCN(Cc2ccc(NC(=O)c3cncc(C#Cc4cncc5nccnc45)c3)cc2C(F)(F)F)CC1 [HSL212, N-(4-((4-methylpiperazin-1-yl)methyl)-3-(trifluoromethyl)phenyl) (pyrido[3,4-b]pyrazin-8-ylethynyl)nicotinamide]",136 nM,< 5 nM,> 50000 nM,–,–,–
"Cc1nc2cnc(N)c(C#Cc3cncc(C(=O)Nc4ccc(CN5CCN(C)CC5)c(C(F)(F)F)c4)c3)c2nc1C [HSL476, 5-((7-amino-2,3-dimethylpyrido[3,4-b]pyrazin-8-yl)ethynyl)-N-(4-((4-methylpiperazin-1-yl)methyl)-3-(trifluoromethyl)phenyl)nicotinamide]",–,–,–,18 nM,could reduce growth tumor,Oral bioavailability (Oral bioavailability): orally bioavailable; IC50 (MiaPaCa-2): 25 nM; IC50 [4]: < 20 nM; Tolerability (Tolerability in mice): well tolerated
"COc1ccc(CN2C3CC2CN(c2ccc(-c4cc(OCC(C)(C)O)cn5ncc(C#N)c45)cn2)C3)cn1 [Selpercatinib, reference compound]",–,–,–,2620 nM,ineffective,–
Cc1ccc(C(=O)Nc2ccc(CN3CCN(C)CC3)c(C(F)(F)F)c2)cc1C#Cc1cnc2cccnn12 [ponatinib],–,–,–,77 nM,–,–
CO[C@]1(C(=O)N[C@@H](C)c2ccc(-n3cc(F)cn3)nc2)CC[C@H](c2nc(C)cc(Nc3cc(C)[nH]n3)n2)CC1 [pralsetinib],–,–,–,7320 nM,–,–
